Earlier results in patent US20220339166A1, “POST COVID19 VACCINE REMEDIES” (priority 2021, published 2022).
Like-named read-outs stand apart in the source and are kept apart here.

Columns and labels:
ACE2 = ACE2 (Homo sapiens, UniProt Q9BYF1)
mouse bone marrow = conditions: in vivo
ODC = ODC (Homo sapiens, UniProt P11926)
Chain of ODC (P11926 whole entry): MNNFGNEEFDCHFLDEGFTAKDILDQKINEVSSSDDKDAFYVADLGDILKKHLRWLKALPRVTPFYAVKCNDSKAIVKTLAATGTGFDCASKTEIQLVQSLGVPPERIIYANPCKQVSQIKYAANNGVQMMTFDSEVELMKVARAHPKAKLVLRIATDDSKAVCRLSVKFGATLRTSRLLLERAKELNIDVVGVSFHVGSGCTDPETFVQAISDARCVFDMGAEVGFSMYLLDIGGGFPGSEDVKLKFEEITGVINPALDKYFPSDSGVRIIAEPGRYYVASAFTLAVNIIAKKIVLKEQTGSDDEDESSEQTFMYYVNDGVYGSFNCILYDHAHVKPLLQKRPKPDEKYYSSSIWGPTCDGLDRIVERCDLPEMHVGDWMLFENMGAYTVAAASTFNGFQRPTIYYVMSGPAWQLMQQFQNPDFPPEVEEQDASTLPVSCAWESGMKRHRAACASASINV

Chain of ACE2 (Q9BYF1 18-805): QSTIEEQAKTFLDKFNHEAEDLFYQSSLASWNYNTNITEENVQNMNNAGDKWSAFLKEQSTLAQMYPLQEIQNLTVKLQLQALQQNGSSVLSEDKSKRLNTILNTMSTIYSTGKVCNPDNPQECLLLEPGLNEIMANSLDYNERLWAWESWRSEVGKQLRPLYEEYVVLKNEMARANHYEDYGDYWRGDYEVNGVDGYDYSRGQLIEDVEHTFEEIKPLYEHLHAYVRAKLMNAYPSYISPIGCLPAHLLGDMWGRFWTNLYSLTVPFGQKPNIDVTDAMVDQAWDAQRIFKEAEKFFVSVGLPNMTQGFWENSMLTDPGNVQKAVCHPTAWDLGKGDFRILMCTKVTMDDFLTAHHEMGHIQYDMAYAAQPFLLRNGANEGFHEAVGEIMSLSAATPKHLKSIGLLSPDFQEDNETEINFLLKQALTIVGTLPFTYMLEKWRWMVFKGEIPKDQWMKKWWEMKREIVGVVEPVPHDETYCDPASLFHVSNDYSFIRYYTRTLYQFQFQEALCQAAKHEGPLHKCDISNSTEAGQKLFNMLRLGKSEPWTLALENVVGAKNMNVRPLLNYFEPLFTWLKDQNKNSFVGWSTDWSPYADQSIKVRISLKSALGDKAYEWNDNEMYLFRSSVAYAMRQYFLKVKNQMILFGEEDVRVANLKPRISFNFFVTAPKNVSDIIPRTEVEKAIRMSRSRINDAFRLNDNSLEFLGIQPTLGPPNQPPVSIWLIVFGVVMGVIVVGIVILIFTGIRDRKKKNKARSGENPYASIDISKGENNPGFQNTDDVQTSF

## NCCCC[C@H](N)C(=O)O [lysine]
ACE2
  reduction of ACE2 affinity and interference with fusion domain for S1 spike protein: 10%

## O=C(Cn1ccnc1[N+](=O)[O-])NCc1ccccc1 [benznidazole]
Trypanosoma cruzi; given soon after infection, at the onset of the acute phase
  effective in curing: ~100%

## NCCS [Cysteamine]
Mouse bone marrow
  DNA synthesis: inhibits DNA synthesis

## CC1CS(=O)(=O)CCN1/N=C/c1ccc([N+](=O)[O-])o1 (stereo not drawn) [nifurtimox]
Trypanosoma cruzi; in vivo
  effective in curing: ~100%

## NCCCC(N)(C(=O)O)C(F)F (stereo not drawn) [DFMO]
ODC
  stalls DNA synthesis: 70-80%

## O=C([O-])O.[Na+] [sodium bicarbonate]
ACE2
  reduction of ACE2 affinity and interference with fusion domain for S1 spike protein: 17%
